Experimental data from patent US20260028338A1, “HETEROBIFUNCTIONAL COMPOUNDS AND METHODS OF TREATING DISEASE” (Halda Therapeutics OpCo, Inc., priority 2023, published 2026).

Assays:
Farage cell line = test: Cellular growth inhibition assay, Farage cells (CellTiter-Glo); type: cell-based; details: Farage cell line (DLBCL), 72 hours, CellTiter-Glo 2.0
Experimental: (§1) Exemplary compounds were tested for ability to inhibit the proliferation of Su-DHL-4 and Farage cells. Su-DHL-4 and Farage cells are commercially available diffuse large B cell lymphoma cell lines (DLBCL).
(§2) Su-DHL-4 and Farage cells were purchased from American Type Cell Culture (ATCC Cat #CRL-2957/CRL-2630) and then seeded on poly-D-lysine coated, black clear-bottom 384-well plates at 3000/well in 25 μL Roswell Park Memorial Institute media (RPMI-1640) supplemented with 10% w/w Fetal bovine serum (FBS) and 1% w/w Pen-Strep. Pen-Strep is a commercially available mixture of penicillin G and streptomycin, which is used in mammalian cell culture media to prevent bacterial contamination. Roswell Park Memorial Institute media (RPMI-1640) supplemented with 10% w/w fetal bovine serum (FBS), and 1% w/w Pen-Strep is herein referred to as Treatment Medium. Following seeding of cells in the plates, the plates were spun at 300×g for 30 seconds, then equilibrated to room temperature for 30 minutes, and then deposited in a humidified tissue culture incubator maintained at 37° C. with 5% CO2.
(§3) At 24 hours after seeding of the cells, dilutions of test compound were prepared in DMSO and dissolved in Treatment Medium, to achieve a final DMSO concentration of 0.5% w/w, thereby providing the Test Compound Solution. A 25 μL aliquot of the Test Compound Solution was added to cells in the well plates. An equal volume of a solution containing DMSO and Treatment Medium was used as a negative control. Following treatment of cells with Test Compound Solution or said equal volume of a solution containing DMSO and Treatment Medium, the plates were spun at 300×g for 30 seconds, and then left in an incubator for 72 hours.
(§4) At the end of the treatment duration, cell viability was quantified with CellTiter-Glo 2.0 reagent (Promega Cat #G9243). For this purpose, plates were equilibrated to room temperature for 30 minutes, and then 25 μL of CellTiter-Glo 2.0 reagent was added to cells in the plate wells. Plates were then agitated on a shaker for two minutes at 500 rpm and subsequently incubated at room temperature for 10 minutes. Following incubation, the plates were spun at 3000×g for 30 seconds, then sealed with an optical adhesive cover, and luminescence readings were measured with an EnVision Plate Reader (Perkin Elmer).
(§5) Data was normalized using zero luminescence for baseline. A four-parameter non-linear regression curve fit was applied to dose-response data in GraphPad Prism data analysis software to determine the half-maximal growth inhibitory concentration (GI50) for each test compound.

[1] = tested on: T-Rex 293 cell line SC cells having increased expression of BCL6 protein; test: Cellular growth inhibition assay, T-Rex 293 SC cells with doxycycline (CellTiter-Glo); type: cell-based; details: T-Rex 293 SC cells with 10 ng/mL doxycycline (increased BCL6 expression), 72 hours, CellTiter-Glo 2.0
Experimental: (§6) Exemplary compounds were tested for ability to inhibit the proliferation of the following types of cells: (i) a T-Rex 293 cell line having increased expression of BCL6 protein due to exposure of doxycycline and (ii) a T-Rex 293 cell line lacking increased expression of BCL6 protein.
(§7) The following types of cells were prepared for this experiment: (i) a T-Rex 293 cell line having increased expression of BCL6 protein due to exposure to doxycycline and (ii) a T-Rex 293 cell line lacking increased expression of BCL6 protein. Ability of the test compounds to inhibit proliferation of the foregoing cell types was evaluated according to the procedures set forth below.
(§8) The doxycycline-inducible BCL6 protein expressing cell line was established using the following protocol: T-Rex 293 cells were purchased from Invitrogen (Cat #R71007) and transfected using Lipofectamine 2000 with the wild-type BCL6 protein sequence cloned into the pcDNA4/TO vector. Transfected cells were selected using 400 μg/mL Zeocin (Invitrogen Cat #R25001). Following selection, single clones were raised and maintained in Dulbecco's Modified Eagle Medium (DMEM) supplemented with 10% w/w Tetracycline-free fetal bovine serum (FBS) and 250 μg/mL Zeocin. Clones were analyzed for expression of BCL6 protein in the presence and absence of 10 ng/mL doxycycline (Sigma Cat #D9891), and a single doxycycline-inducible clone (hereinafter “SC”) was selected for use in downstream assays.
(§9) The SC cells were seeded on poly-D-lysine coated, black clear-bottom 384-well plates at 2500/well, in 25 μL Dulbecco's Modified Eagle Medium (DMEM) supplemented with 10% w/w Tetracycline-free fetal bovine serum (FBS) and 1% w/w pen-strep, with or without 10 ng/mL doxycycline. Pen-Strep is a commercially available mixture of penicillin G and streptomycin, which is used in mammalian cell culture media to prevent bacterial contamination. Dulbecco's Modified Eagle Medium (DMEM) supplemented with 10% w/w Tetracycline-free fetal bovine serum (FBS) and 1% w/w pen-strep, with or without 10 ng/mL doxycycline is herein referred to as Treatment Medium. Following seeding of cells in the plates, the plates were spun at 300×g for 30 seconds, then equilibrated to room temperature for 30 minutes, and then deposited in a humidified tissue culture incubator maintained at 37° C. with 5% CO2.
as §3, §4, §5

[2] = tested on: T-Rex 293 cell line SC cells lacking increased expression of BCL6 protein; test: Cellular growth inhibition assay, T-Rex 293 SC cells without doxycycline (CellTiter-Glo); type: cell-based; details: T-Rex 293 SC cells not exposed to doxycycline (no increased BCL6 expression), 72 hours, CellTiter-Glo 2.0
Experimental: as §6, §7, §8, §9, §3, §4, §5

[3] = molecular target: T1, His-tagged BRD4 BD1 (46-168) (Homo sapiens, UniProt O60885); test: AlphaLISA competition assay, BRD4 BD1; type: binding; details: BRD4-BD1, AlphaLISA competition with biotinylated histone H4K5/8/12/16(Ac) peptide, 10 nM
T1 construct: His-tagged BRD4 BD1 (46-168) and biotinylated histone H4K5/8/12/16(Ac) peptide
Experimental: (§10) Exemplary compounds were tested for ability to bind to bromodomain-containing protein 4 (BRD4).
(§11) Compounds were tested using a developed AlphaLISA competition assay. Briefly, His-tagged BRD4 BD1 (46-168) and biotinylated histone H4K5/8/12/16(Ac) peptide (ANASPEC, AS-64989-1) were incubated in 20 mM HEPES pH 7.5, 100 mM NaCl, 0.5 mM TCEP, 0.1% BSA, 0.02% CHAPS at a final concentration of 10 nM. Test compounds were serially diluted ten times in the same buffer and were added to the BRD4-peptide mixture for 1 h incubation at room temperature. Following incubation, Streptavidin AlphaLISA acceptor beads (PerkinElmer, AL125M) were added to BRD4-peptide-compound samples to a final concentration of 0.01 mg/mL for a 0.5 h incubation at room temperature in the dark. Following incubation, the same amount of Nickel Chelate Alpha donor beads (PerkinElmer, AS101M) were added to the samples for a final 1 h incubation. The AlphaLISA signals were measured using an EnVision plate reader (PerkinElmer). The data were uploaded to Screening Ultra (Dotmatics) to determine the half-maximal inhibitory concentration (IC50) for each test compound.

[4] = molecular target: T2, His-tagged BRD4 BD2 (333-460) (Homo sapiens, UniProt O60885); test: AlphaLISA competition assay, BRD4 BD2; type: binding; details: BRD4-BD2, AlphaLISA competition with biotinylated histone H4K5/8/12/16(Ac) peptide, 20 nM
T2 construct: The same assay was developed for His-tagged BRD4 BD2 (333-460) and biotinylated histone H4K5/8/12/16(Ac) peptide
Experimental: as §10, §11
The same assay was developed for His-tagged BRD4 BD2 (333-460) and biotinylated histone H4K5/8/12/16(Ac) peptide at a final concentration of 20 nM.

Su-DHL-4 cell line = test: Cellular growth inhibition assay, Su-DHL-4 cells (CellTiter-Glo); type: cell-based; details: Homo sapiens; Su-DHL-4 cell line (DLBCL), 72 hours, CellTiter-Glo 2.0
Experimental: as §1, §2, §3, §4, §5

[5] = molecular target: T3, biotinylated BCL6 (5-129) (Homo sapiens, UniProt P41182); test: SPR assay for binding affinity to BCL6; details: Biacore 8K, 25° C., immobilized biotinylated BCL6 (5-129)
T3 construct: biotinylated BCL6 (5-129) was diluted in 10 mM HEPES pH 7.4; biotin (biotinylated)
Experimental: Exemplary compounds were tested for ability to bind to B-cell lymphoma 6 (BCL6) protein.
Binding studies by surface plasmon resonance (SPR) were performed using a Biacore 8K (Cytiva) instrument at 25° C. Briefly, biotinylated BCL6 (5-129) was diluted in 10 mM HEPES pH 7.4, 150 mM NaCl, 0.05% Surfactant P20, 0.5 mM TCEP, 3% DMSO to 1-5 μg/mL and was immobilized on an SA sensor chip (Cytiva, BR100032), resulting in surface densities at 1000-3000 resonance units (RUs). Test compounds were serially diluted five times in the same buffer and were injected to the immobilized surface. Kinetic determination experiments were performed using single-cycle kinetics with 110-120 s contact time, 1000-4000 s dissociation time, 30 μL/min flow rate. Binding data were analyzed by using Biacore insight evaluation software to determine KD values for test compounds.

SMILES	IC50 [3]	IC50 [4]	GI50 (Su-DHL-4 cell line)	Kd [5]	GI50 (Farage cell line)	GI50 [1]	GI50 [2]
CCS(=O)(=O)Nc1ccc(Oc2cccc(OCCN3CCN(CCN4CCN(c5ncc(Cl)c(Nc6ccc7c(c6)cc(OCC(=O)NC)c(=O)n7C)n5)CC4)CC3)c2)c(-c2cn(C)c(=O)c3[nH]ccc23)c1 [Compound I-15]	< 5 nM	< 5 nM	< 500 nM	1 to 10 nM	< 500 nM	< 500 nM	500 to 1500 nM
CNC(=O)COc1cc2cc(Nc3nc(N4CCC(CCCN5CCN(CCN(C)[C@H]6C[C@H](Oc7ccc(C(C)(C)O)cc7-c7cn(C)c(=O)c8[nH]ccc78)C6)CC5)CC4)ncc3Cl)ccc2n(C)c1=O [Compound I-19]	5 to 50 nM	< 5 nM	< 500 nM	1 to 10 nM	< 500 nM	< 500 nM	1500 to 3000 nM
CNC(=O)COc1cc2cc(Nc3nc(N4CCC(CN5CCN(CCN(C)[C@H]6C[C@H](Oc7ccc(C(C)(C)O)cc7-c7cn(C)c(=O)c8[nH]ccc78)C6)CC5)CC4)ncc3Cl)ccc2n(C)c1=O [Compound I-20]	5 to 50 nM	< 5 nM	< 500 nM	1 to 10 nM	< 500 nM	< 500 nM	500 to 1500 nM
CNC(=O)COc1cc2cc(Nc3nc(N4CCC(CC5CN(CC6CC(Oc7ccc(C(C)(C)O)cc7-c7cn(C)c(=O)c8[nH]ccc78)C6)C5)CC4)ncc3Cl)ccc2n(C)c1=O (stereo not shown) [Compound I-22, 2-[[6-[[5-chloro-2-[4-[[1-[[3-[4-(1-hydroxy-1-methyl-ethyl)-2-(6-methyl-7-oxo-1H-pyrrolo[2,3-c]pyridin-4-yl)phenoxy]cyclobutyl]methyl]azetidin-3-yl]methyl]-1-piperidyl]pyrimidin-4-yl]amino]-1-methyl-2-oxo-3-quinolyl]oxy]-N-methyl-acetamide]	< 5 nM	< 5 nM	< 500 nM	1 to 10 nM	< 500 nM	< 500 nM	< 500 nM
CNC(=O)COc1cc2cc(Nc3nc(N4CCC(CN5CC(Oc6ccc(C7=N[C@@H](Cc8ncco8)c8nnc(C)n8-c8sc(C)c(C)c87)cc6)C5)CC4)ncc3Cl)ccc2n(C)c1=O [Compound I-26]	< 5 nM	< 5 nM	< 500 nM	10 to 100 nM	–	< 500 nM	< 500 nM

Now from value to molecule, other results behind:

IC50 [3]	IC50 [4]	GI50 (Su-DHL-4 cell line)	Kd [5]	SMILES	GI50 (Farage cell line)	GI50 [1]	GI50 [2]
5 to 50 nM	< 5 nM	< 500 nM	1 to 10 nM	CNC(=O)COc1cc2cc(Nc3nc(N4CCN(CCN(C)C5CC(Oc6ccc(C(C)(C)O)cc6-c6cn(C)c(=O)c7[nH]ccc67)C5)CC4)ncc3Cl)ccc2n(C)c1=O (stereo not shown) [Compound I-18, 2-[[6-[[5-chloro-2-[4-[2-[[3-[4-(1-hydroxy-1-methyl-ethyl)-2-(6-methyl-7-oxo-1H-pyrrolo[2,3-c]pyridin-4-yl)phenoxy]cyclobutyl]-methyl-amino]ethyl]piperazin-1-yl]pyrimidin-4-yl]amino]-1-methyl-2-oxo-3-quinolyl]oxy]-N-methyl-acetamide]	< 500 nM	< 500 nM	500 to 1500 nM
< 5 nM	< 5 nM	< 500 nM	1 to 10 nM	CNC(=O)COc1cc2cc(Nc3nc(N4CCC(CCN5CCN(CCN(C)[C@H]6C[C@H](Oc7ccc(C(C)(C)O)cc7-c7cn(C)c(=O)c8[nH]ccc78)C6)CC5)CC4)ncc3Cl)ccc2n(C)c1=O [Compound I-21]	< 500 nM	< 500 nM	1500 to 3000 nM
< 5 nM	< 5 nM	< 500 nM	1 to 10 nM	CNC(=O)COc1cc2cc(Nc3nc(N4CCN(CCN5CCN(CCOc6cccc(Oc7ccc(C(C)(C)O)cc7-c7cn(C)c(=O)c8[nH]ccc78)c6)CC5)CC4)ncc3Cl)ccc2n(C)c1=O [Compound I-23, 2-[[6-[[5-chloro-2-[4-[2-[4-[2-[3-[4-(1-hydroxy-1-methyl-ethyl)-2-(6-methyl-7-oxo-1H-pyrrolo[2,3-c]pyridin-4-yl)phenoxy]phenoxy]ethyl]piperazin-1-yl]ethyl]piperazin-1-yl]pyrimidin-4-yl]amino]-1-methyl-2-oxo-3-quinolyl]oxy]-N-methyl-acetamide]	< 500 nM	< 500 nM	500 to 1500 nM
